Laboratory results published in EP2488529B1, “Spirocyclic derivatives as histone deacetylase inhibitors” (DAC S.r.l., priority 2009, dated 2011).

How the values were obtained:
HDAC = assay: Assay of enzyme inhibition of HDAC (BIOMOL kit, fluorescence); format: biochemical; conditions: nuclear fraction of Hela cells; substrate 200 µM; 15 min at RT
Description: The in-vitro activity of HDAC inhibitors was assayed using a BIOMOL Kit, according to the instructions from the manufacturer (Biomolecular Research Laborator). 15 µl of 30 x diluted nuclear fraction of Hela cells, was diluted to 50 µl with the assay buffer containing the HDAC inhibitor and the substrate (lysine with acetylated amino group on the side chain) at a concentration of 200 µM. The samples were incubated for 15 min at RT and then exposed to a developer (10 min at RT). In this last step a fluorophore was produced, whose fluorescence was measured using an excitation wavelength of 355 nm and an emission at 460 nm. The IC50 was calculated using GraphPad Software.

K562 = assay: Cell growth, CellTiter-Glo Luminescent Cell Viability Assay (antiproliferative assay); format: cell-based; conditions: Homo sapiens; K562 cells, incubated for 72 h
Text: (§1) CellTiter-Glo® Luminescent Cell Viability Assay (Promega) is a homogeneous method of determining the number of viable cells in culture based on quantitation of the present ATP, which indicates the presence of metabolically active cells. The homogeneous assay procedure involves addition of a single reagent (CellTiter-Glo® Reagent) directly to the cells, which leads to cell lysis and generation of a luminescent signal proportional to the amount of the ATP and the number of cells present in culture. The assay relies on the properties of a proprietary thermostable luciferase (Ultra-Glo® recombinant luciferase), which generates a luminescent signal. K562, A549, and HCT-116 cells, in exponential growth, were incubated for 72 h with different concentrations of the inhibitors. After 72 h, a volume of CellTiter-Glo® Reagent equal to the volume of cell culture medium was added. The content was mixed for 2 min to induce cell lysis. The luminescence was recorded after further 10 min at RT in order to obtain a stable luminescent signal.
(§2) The IC50 was calculated using GraphPad Software.

A549 = assay: as above; format: cell-based; conditions: Homo sapiens; A549 cells, incubated for 72 h
Text: as §1, §2

HCT-116 = assay: as above; format: cell-based; conditions: Homo sapiens; HCT-116 cells, incubated for 72 h; read-out: HCT116 IC50
Text: as §1, §2

| IC50 (HDAC) | IC50 (K562) | IC50 (A549) | IC50 (HCT-116) | Structure (SMILES) |
| --- | --- | --- | --- | --- |
| 100 to 1000 nM | ≤ 1000 nM | 1000 to 3000 nM | ≤ 1000 nM | O=C(/C=C/c1cc(F)c2c(c1)C(=O)CC1(CCN(Cc3ccccc3)CC1)O2)NO [Example 51, (E)-3-(1'-Benzyl-8-fluoro-4-oxospiro[chroman-2,4'-piperidine]-6-yl)-N-hydroxy-acrylamide] |
| 100 to 1000 nM | ≤ 1000 nM | 1000 to 3000 nM | ≤ 1000 nM | Cc1cc(/C=C/C(=O)NO)cc2c1OC1(CCN(Cc3ccccc3)CC1)CC2=O [Example 52, (E)-3-(1'-Benzyl-8-methyl-4-oxospiro[chroman-2,4'-piperidine]-6-yl)-N-hydroxy-acrylamide] |
| ≥ 1000 nM | 1000 to 3000 nM | ≥ 3000 nM | 1000 to 3000 nM | CON=C1CC2(CCCN(Cc3ccc(F)cc3)C2)Oc2ccc(/C=C/C(=O)NO)cc21 (centres unmarked) [Example 53, (E)-3-(1'-(4-Fluorobenzyl)-4-(methoxyimino)spiro[chroman-2,3'-piperidine]-6-yl)-N-hydroxyacrylamide] |
| ≤ 100 nM | ≤ 1000 nM | ≤ 1000 nM | ≤ 1000 nM | O=C(/C=C/c1ccc2c(c1)C(=NO)CC1(CCCN(C3CCCC3)C1)O2)NO (centres unmarked) [Example 54, (E)-3-(1'-Cyclopentyl-4-(hydroxyimino)spiro[chroman-2,3'-piperidine]-6-yl)-N-hydroxyacrylamide] |
| ≥ 1000 nM | ≤ 1000 nM | 1000 to 3000 nM | ≤ 1000 nM | O=C(/C=C/c1ccc2c(c1)C(=NOCc1ccccc1)CC1(CCCN(CCc3ccccc3)C1)O2)NO (centres unmarked) [Example 55, (E)-3-(4-(Benzyloxyimino)-1'-phenethylspiro[chroman-2,3'-piperidine]-6-yl)-N-hydroxyacrylamide] |
